Blank lines part the entries; values can stand above or below the molecule they belong to.
Key:
[1] = target: T1, Histone deacetylase 8 (Homo sapiens, UniProt Q9BY41); experiment: Inhibition of HDAC8 (unknown origin)
T1 sequence (Q9BY41 whole entry): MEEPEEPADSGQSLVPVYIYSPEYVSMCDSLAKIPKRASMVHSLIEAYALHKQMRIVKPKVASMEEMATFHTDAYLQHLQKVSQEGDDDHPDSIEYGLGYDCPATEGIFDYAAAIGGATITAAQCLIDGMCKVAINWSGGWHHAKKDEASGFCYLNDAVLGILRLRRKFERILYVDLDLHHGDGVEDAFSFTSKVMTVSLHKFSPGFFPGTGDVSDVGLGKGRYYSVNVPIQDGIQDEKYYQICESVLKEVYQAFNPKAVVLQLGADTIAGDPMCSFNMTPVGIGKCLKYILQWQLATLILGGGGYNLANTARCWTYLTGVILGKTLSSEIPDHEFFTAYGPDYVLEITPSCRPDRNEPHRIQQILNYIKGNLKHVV

[2] = tested on: BE(2)-C; experiment: Antitumor activity against human BE2C cells xenografted in mouse assessed as tumor growth inhibition at 50 mg/kg, ip relative to control; type: functional; conditions: read-out: TGI
[3] = Metabolic stability in liver microsomes (unknown origin) assessed as clearance; type: ADME, Microsome; conditions: read-out: CLH
[4] = Metabolic stability in liver microsomes (unknown origin) assessed as half life; type: ADME, Microsome
[5] = tested on: SK-OV-3; experiment: Antitumor activity against human SK-OV-3 cells xenografted in female Balb/c nude mouse assessed as reduction in tumor growth at 50 mg/kg, sc administered once a day and measured every 2 to 3 days for 19 days relative to control; type: functional; design: scale not given: the % may be the effect or the level left; conditions: time 19 day
[6] = target: T2, Protein deacetylase HDAC6 (Homo sapiens, UniProt Q9UBN7); experiment: Inhibition of HDAC6 (unknown origin)
T2 sequence (Q9UBN7 whole entry): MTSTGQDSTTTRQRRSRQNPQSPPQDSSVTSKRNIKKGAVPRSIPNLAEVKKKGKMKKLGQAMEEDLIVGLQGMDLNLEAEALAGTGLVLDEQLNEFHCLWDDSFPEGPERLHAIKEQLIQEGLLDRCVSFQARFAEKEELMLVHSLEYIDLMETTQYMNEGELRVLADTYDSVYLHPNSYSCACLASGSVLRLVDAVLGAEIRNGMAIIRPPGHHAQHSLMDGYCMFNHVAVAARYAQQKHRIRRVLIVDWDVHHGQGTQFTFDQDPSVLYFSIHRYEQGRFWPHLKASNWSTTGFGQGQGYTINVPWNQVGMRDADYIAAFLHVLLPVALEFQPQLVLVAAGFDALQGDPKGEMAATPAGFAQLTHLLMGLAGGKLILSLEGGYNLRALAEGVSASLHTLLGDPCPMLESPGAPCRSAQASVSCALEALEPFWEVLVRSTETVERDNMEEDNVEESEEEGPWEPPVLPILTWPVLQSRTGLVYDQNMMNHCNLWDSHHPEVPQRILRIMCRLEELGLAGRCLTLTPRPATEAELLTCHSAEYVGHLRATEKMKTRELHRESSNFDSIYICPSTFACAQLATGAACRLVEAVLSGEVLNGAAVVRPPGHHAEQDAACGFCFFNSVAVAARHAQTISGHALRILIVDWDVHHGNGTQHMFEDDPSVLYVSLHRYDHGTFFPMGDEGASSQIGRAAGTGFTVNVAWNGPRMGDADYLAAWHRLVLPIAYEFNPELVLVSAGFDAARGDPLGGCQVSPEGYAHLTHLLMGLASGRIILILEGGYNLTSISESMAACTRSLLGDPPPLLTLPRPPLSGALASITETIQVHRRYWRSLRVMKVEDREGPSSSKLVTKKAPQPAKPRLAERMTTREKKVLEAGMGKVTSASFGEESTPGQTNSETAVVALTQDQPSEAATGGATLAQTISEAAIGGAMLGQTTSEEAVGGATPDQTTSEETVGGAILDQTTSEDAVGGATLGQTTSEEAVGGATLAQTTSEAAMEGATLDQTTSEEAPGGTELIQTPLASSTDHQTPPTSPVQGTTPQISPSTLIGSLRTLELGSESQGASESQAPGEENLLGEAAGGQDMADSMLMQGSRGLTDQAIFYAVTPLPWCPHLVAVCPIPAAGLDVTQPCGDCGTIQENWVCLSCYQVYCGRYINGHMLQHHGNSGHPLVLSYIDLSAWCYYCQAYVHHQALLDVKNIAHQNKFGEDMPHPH

[7] = tested on: A2780; experiment: Antiproliferative activity against human A2780 cells assessed as inhibition of cell growth incubated for 72 hrs by CCK-8 assay; type: functional, cell-based; conditions: A2780, 72 h
[8] = tested on: SK-OV-3; experiment: Antiproliferative activity against human SK-OV-3 cells assessed as inhibition of cell growth incubated for 72 hrs by CCK-8 assay; type: functional, cell-based; conditions: SK-OV-3, 72 h
[9] = tested on: A-431; experiment: Antiproliferative activity against human A-431 cells assessed as inhibition of cell growth by MTT assay; type: functional, cell-based
[10] = tested on: HCT-116; experiment: Antiproliferative activity against human HCT-116 cells assessed as inhibition of cell growth by MTT assay; type: functional, cell-based
[11] = tested on: MCF7; experiment: Antiproliferative activity against human MCF7 cells assessed as inhibition of cell growth by MTT assay; type: functional, cell-based
[12] = target: E3 ubiquitin-protein ligase Mdm2 (Homo sapiens) (UniProt Q00987); experiment: Inhibition of MDM2 (unknown origin) using biotinylated P53 peptide as substrate at 1 uM by HTRF assay relative to control
[13] = tested on: U-937; experiment: cells; type: functional, cell-based; conditions: Homo sapiens, U-937, 48 h
[14] = tested on: MDA-MB-231; experiment: cells; type: functional, cell-based; conditions: Homo sapiens, MDA-MB-231, 48 h
[15] = tested on: MDA-MB-468; experiment: cells; type: functional, cell-based; conditions: Homo sapiens, MDA-MB-468, 48 h
[16] = tested on: HepG2; experiment: animal or person; type: functional, Homo sapiens; conditions: Mus musculus, HepG2, po, 384 h, route ig, time 16 day
[17] = tested on: K562; experiment: cells; type: functional, cell-based; conditions: Homo sapiens, K562, 48 h
[18] = tested on: Calu-3; experiment: cells; type: functional, cell-based; conditions: Homo sapiens, Calu-3, 48 h
[19] = cells; type: functional, cell-based; conditions: Homo sapiens, SPCA1, 48 h
[20] = tested on: HepG2; experiment: cells; type: functional, cell-based; conditions: Homo sapiens, HepG2, 48 h
[21] = tested on: PANC-1; experiment: cells; type: functional, cell-based; conditions: Homo sapiens, PANC-1, 48 h
[22] = tested on: SK-OV-3; experiment: cells; type: functional, cell-based; conditions: Homo sapiens, SK-OV-3, 48 h
[23] = tested on: U-266; experiment: cells; type: functional, cell-based; conditions: Homo sapiens, U-266, 48 h
[24] = target: Histone deacetylase 3 (Homo sapiens, UniProt O15379); experiment: Inhibition of recombinant HDAC3 (unknown origin) using Boc-Lys (acetyl)-AMC as substrate preincubated for 1 hr followed by substrate addition and measured after 2 hrs by fluorescence based analysis
[25] = target: Histone deacetylase; experiment: Inhibition of HDAC in human HeLa cell nuclear extract using Boc-Lys(Ac)-AMC as substrate; type: subcellular, Nucleus
[26] = Toxicity in female BALB/c mouse assessed as maximum tolerable dose; conditions: in vivo
[27] = Metabolic stability in rat liver microsomes assessed as half life; type: ADME, Microsome
[28] = Oral bioavailability in BALB/c mouse at 50 mg/kg; type: ADME, organism-based; conditions: in vivo
[29] = Cmax in BALB/c mouse at 50 mg/kg, po; type: ADME, organism-based; conditions: in vivo
[30] = Tmax in BALB/c mouse at 50 mg/kg, po; type: ADME, organism-based; conditions: in vivo
[31] = Half life in BALB/c mouse at 50 mg/kg, po; type: ADME, organism-based; conditions: in vivo
[32] = Metabolic stability in human liver microsomes assessed as half life; type: ADME, Microsome

Chain of E3 ubiquitin-protein ligase Mdm2 (Homo sapiens) (Q00987 whole entry, looked up): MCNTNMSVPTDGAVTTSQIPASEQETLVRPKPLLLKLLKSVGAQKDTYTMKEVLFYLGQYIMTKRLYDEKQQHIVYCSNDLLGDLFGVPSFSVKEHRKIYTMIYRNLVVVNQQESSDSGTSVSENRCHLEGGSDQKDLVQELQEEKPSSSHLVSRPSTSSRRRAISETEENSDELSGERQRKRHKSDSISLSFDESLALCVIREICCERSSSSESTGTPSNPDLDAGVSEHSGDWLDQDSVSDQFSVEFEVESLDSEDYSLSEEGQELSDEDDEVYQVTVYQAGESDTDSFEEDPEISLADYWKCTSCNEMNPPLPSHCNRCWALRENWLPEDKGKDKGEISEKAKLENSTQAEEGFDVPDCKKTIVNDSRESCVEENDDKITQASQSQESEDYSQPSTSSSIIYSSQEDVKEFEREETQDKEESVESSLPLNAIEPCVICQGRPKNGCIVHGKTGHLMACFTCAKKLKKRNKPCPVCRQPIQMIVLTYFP
Chain of Histone deacetylase 3 (O15379 whole entry): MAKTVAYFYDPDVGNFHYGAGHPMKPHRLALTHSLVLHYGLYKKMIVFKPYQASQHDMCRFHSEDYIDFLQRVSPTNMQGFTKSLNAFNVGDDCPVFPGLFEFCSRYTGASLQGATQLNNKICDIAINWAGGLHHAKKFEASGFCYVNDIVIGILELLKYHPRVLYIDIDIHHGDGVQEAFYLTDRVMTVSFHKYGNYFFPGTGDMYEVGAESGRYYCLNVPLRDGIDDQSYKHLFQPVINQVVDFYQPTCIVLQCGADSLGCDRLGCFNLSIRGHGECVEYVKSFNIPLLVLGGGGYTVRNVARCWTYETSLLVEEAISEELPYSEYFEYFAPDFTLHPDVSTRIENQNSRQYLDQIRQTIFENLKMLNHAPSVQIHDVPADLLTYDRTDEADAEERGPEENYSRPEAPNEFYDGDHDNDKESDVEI

IC50 [1]: 117 nM
CLint scaled [3]: 22.8 mL/min/kg
half-life [4]: 54.8 min
Structure (SMILES): COc1cc(-c2cccc(-c3ccc(/C=C/C(=O)NO)cc3)n2)cc(OC)c1OC
inhibition in vivo at 50 mg/kg [2]: 61%

IC50 [6]: 180 nM
IC50 [7]: 5400 nM
IC50 [8]: 870 nM
Structure (SMILES): COc1ccc(-c2cc(-c3ccc(C(C)C)cc3)cnc2NCc2ccc(C(=O)NO)cc2)cc1
Activity [5]: ~35%

IC50 [13]: 160 nM
IC50 [14]: 160 nM
IC50 [15]: 160 nM
IC50 [17]: 160 nM
IC50 [18]: 160 nM
IC50 [19]: 160 nM
IC50 [20]: 160 nM
IC50 [21]: 160 nM
IC50 [22]: 160 nM
IC50 [23]: 160 nM
IC50 [24]: 13.9 nM
Structure (SMILES): Cn1cc(CCCC(=O)Nc2ccc(C(=O)NO)cc2)c2ccccc21
inhibition in vivo at 50 mg/kg [16]: 33.1%

The remaining lines, values behind:

Structure (SMILES): O=C(CCCCCCC(=O)N1CCC(C(=O)Nc2ccc([C@@H]3[C@H]4CSCN4[C@]4(C(=O)Nc5cc(Cl)ccc54)[C@H]3C(=O)c3ccccc3)cc2)CC1)NO
IC50 [9]: 1370 nM
IC50 [10]: 1370 nM
IC50 [11]: 1370 nM
inhibition [12]: 65%

Structure (SMILES): CC(C)n1cnc2c(-c3cccc(OCCCC(=O)NO)c3)nc(N3CCOCC3)nc21
IC50 [25]: 35 nM
MTD [26]: 200 mg/kg
half-life [27]: > 45 min
bioavailability [28]: 21%
Cmax [29]: 1620 ng/mL
Tmax [30]: 9 min
half-life [31]: 113 min
half-life [32]: > 45 min

Source: ChEMBL document CHEMBL5614367, “Hydroxamic acid hybrids: Histone deacetylase inhibitors with anticancer therapeutic potency” (Eur J Med Chem, 2023)
